For one experiment, the target named is K-Ras-wildtype (Homo sapiens, UniProt P01116). Kind of experiment: K-Ras-wildtype activation by SOS1 (wild-type KRAS activation by SOS1cat assay, HTRF). The following applies: mean, SOS1cat mediated loading of wild-type GST-KRAS-GDP with fluorescent GTP analogue, read-out: K-Ras-wildtype activation by SOS1 IC50 - [mol/l] (mean). Type of experiment: biochemical. The procedure: (§1) Preparation of test compound dilutions. A 100-fold concentrated solution of the test compound (50 nL) in DMSO was transferred to microtiter test plates (384 or 1,536 wells, Greiner Bio-One, Germany) using either a Hummingbird liquid handler (Digilab, MA, USA) or an Echo acoustic system (Labcyte, CA, USA). Plates were sealed with adhesive foil or heat-sealed and stored at −20 C until use. Serial dilutions of test compounds were prepared in 100% DMSO using a Precision Pipetting System (BioTek, USA).
(§2) Measurement and evaluation of inhibition data, calculation of IC50 values. Homogeneous time-resolved fluorescence (HTRF) was measured with a PHERAstar reader (BMG, Germany) using the HTRF module (excitation: 337 nm; emission 1: 620 nm, emission 2: 665 nm). The ratio of the emissions at 665 and 620 nm was used as the specific signal for further evaluation. The data were normalized using the controls: DMSO=0% inhibition, inhibition control wells with inhibitor control solution=100% inhibition. Compounds were tested in duplicates at up to 11 concentrations (e.g. 20 μM, 5.7 μM, 1.6 μM, 0.47 μM, 0.13 μM, 38 nM, 11 nM, 3.1 nM, 0.89 nM, 0.25 nM and 0.073 nM). IC50 values were calculated using a four-parameter fit, with a commercial software package (Genedata Screener, Switzerland).
(§3) KRAS^G12C activation by SOS1^cat assay (“On-assay”). This assay quantifies SOS1^cat mediated loading of KRAS^G12C-GDP with a fluorescent GTP analogue. Detection of successful loading was achieved by measuring resonance energy transfer from anti-GST-terbium (FRET donor) bound to GST-KRAS^G12C to the loaded fluorescent GTP analogue (FRET acceptor). The fluorescent GTP analogue EDA-GTP-DY-647P1 [2′/3′-O-(2-aminoethyl-carbamoyl)guanosine-5′-triphosphate labelled with DY-647P1 (Dyomics GmbH, Germany)] was synthesized by Jena Bioscience (Germany) and supplied as a 1 mM aqueous solution. A KRAS^G12C working solution was prepared in assay buffer [10 mM HEPES pH 7.4 (AppliChem), 150 mM NaCl (Sigma), 5 mM MgCl2 (Sigma), 1 mM DTT (Thermo Fisher), 0.05% BSA Fraction V pH 7.0 (ICN Biomedicals), 0.0025% (v/v) Igepal (Sigma)] containing GST-KRAS^G12C (final concentration in assay 50 nM) and anti-GST-terbium (Cisbio, France) (final concentration in assay 1 nM). A SOS1^cat working solution was prepared in assay buffer containing SOS1^cat (final concentration 10 nM) and EDA-GTP-DY-647P1 (final concentration 100 nM). An inhibitor control solution was prepared in assay buffer containing EDA-GTP-DY-647P1 (final concentration 100 nM) without SOS1^cat. All steps of the assay were performed at 20° C. A volume of 3 μL of the KRAS^G12C working solution was added to all wells of the test plate using a Multidrop dispenser (Thermo LabSystems). After 15 min, 2 μL of the SOS1^ct working solution was added to all wells, except for the inhibitor control solution wells. After 30 min incubation, HTRF was measured.
(§4) G12D and Wild-type KRAS activation by SOS1cat assays. These assays quantify human SOS1^cat mediated loading of wild-type GST-KRAS^WT-GDP or GST-KRAS^G12D-GDP with a fluorescent GTP analogue. The assay was performed similarly to the KRAS^G12C activation by SOS1^cat assay with the following differences: final concentration of SOS1^cat of 60 nM and final incubation time before measurement of 10 min for KRAS^G12D assay, final concentration of SOS1^cat of 20 nM and final incubation time before measurement of 15 min for wild-type KRAS assay, respectively. GST-KRAS^G12C was replaced by GST-KRAS^WT or GST-KRAS^G12D, respectively, also at 50 nM final concentration.
Wild-type KRAS activation by SOS1^cat assay. This assay quantifies human SOS1^cat mediated loading of wild-type GST-KRAS-GDP with a fluorescent GTP analogue. The assay was performed similarly to the KRAS^G12D activation by SOS1^cat assay just by replacement of GST-KRAS^G12D by wild-type GST-KRAS while concentrations of all components and incubation times were the same.
In general terms: In TR-FRET formats the signal depends on donor and acceptor labels being close together.

The next experiment addresses K-Ras G12D (Homo sapiens, UniProt P01116, G12D). Briefly: K-Ras G12D activation by SOS1 (KRAS G12D activation by SOS1cat assay, HTRF). Type of experiment: biochemical. The following applies: mean, SOS1cat mediated loading of GST-KRAS G12D-GDP with fluorescent GTP analogue, read-out: K-Ras G12D activation by SOS1 IC50 - [mol/l] (mean). The procedure:
as §1, §2, §3, §4
KRAS^G12D activation by SOS1^cat assay (“On-assay”). This assay quantifies SOS1^cat mediated loading of KRAS^G12D-GDP with a fluorescent GTP analogue. Detection of successful loading was achieved by measuring resonance energy transfer from anti-GST-terbium (FRET donor) bound to GST-KRAS^G12D to the loaded fluorescent GTP analogue (FRET acceptor).

Sequence of K-Ras-wildtype (P01116 1-188 isoform P01116-2): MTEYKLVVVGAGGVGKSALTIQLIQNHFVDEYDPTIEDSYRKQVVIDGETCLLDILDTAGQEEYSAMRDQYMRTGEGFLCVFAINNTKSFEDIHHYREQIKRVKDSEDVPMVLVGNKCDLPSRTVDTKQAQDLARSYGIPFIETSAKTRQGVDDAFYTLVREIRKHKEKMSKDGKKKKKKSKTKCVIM
Sequence of K-Ras G12D (P01116 1-188 isoform P01116-2 G12D): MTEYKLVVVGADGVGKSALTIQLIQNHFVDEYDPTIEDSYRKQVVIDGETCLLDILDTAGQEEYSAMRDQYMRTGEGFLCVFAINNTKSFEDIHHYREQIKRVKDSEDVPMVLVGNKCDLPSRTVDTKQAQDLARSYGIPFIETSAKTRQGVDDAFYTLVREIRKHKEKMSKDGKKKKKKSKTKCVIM

In the case of `CN(c1nc2c(N3CC4CCC(C3)N4)nc(OC[C@@]34CCCN3C[C@H](F)C4)nc2s1)c1cc(O)cc2ccccc12` [Example 29, 4-{[7-(3,8-diazabicyclo[3.2.1]octan-3-yl)-5-{[(2R,7aS)-2-fluorotetrahydro-1H-pyrrolizin-7a(5H)-yl]methoxy}[1,3]thiazolo[5,4-d]pyrimidin-2-yl](methyl)amino}naphthalen-2-ol], the IC50 at K-Ras-wildtype is 11900 nM; on K-Ras G12D it was 284 nM.
For `Oc1cc(Nc2nc3c(N4CC5COCC(C4)N5)nc(OC[C@@]45CCCN4C[C@H](F)C5)nc3s2)c2ccccc2c1` [Example 30, 4-{[5-{[(2R,7aS)-2-fluorotetrahydro-1H-pyrrolizin-7a(5H)-yl]methoxy}-7-(3-oxa-7,9-diazabicyclo[3.3.1]nonan-7-yl) [1,3]thiazolo[5,4-d]pyrimidin-2-yl]amino}-2-naphthol] the same measures were 7610 nM and 10600 nM.
With `C#Cc1cccc2cc(O)cc(N(C)c3nc4c(N5CC6CCC(C5)N6)nc(OC[C@@]56CCCN5C[C@H](F)C6)nc4s3)c12` [Example 31, 4-{[7-(3,8-diazabicyclo[3.2.1]octan-3-yl)-5-{[(2R,7aS)-2-fluorotetrahydro-1H-pyrrolizin-7a(5H)-yl]methoxy}[1,3]thiazolo[5,4-d]pyrimidin-2-yl](methyl)amino}-5-ethynylnaphthalen-2-ol], the IC50 at K-Ras-wildtype turned out to be 61.5 nM; at K-Ras G12D, 4.42 nM.
For `C#Cc1c(F)ccc2cc(O)cc(Cc3nc4c(N5CC6CCC(C5)N6)nc(OC[C@@]56CCCN5C[C@H](F)C6)nc4s3)c12` [Example 32, 4-{[7-(3,8-diazabicyclo[3.2.1]octan-3-yl)-5-{[(2R,7aS)-2-fluorotetrahydro-1H-pyrrolizin-7a(5H)-yl]methoxy}[1,3]thiazolo[5,4-d]pyrimidin-2-yl]methyl}-5-ethynyl-6-fluoronaphthalen-2-ol] the same measures were 99.8 nM and 3.95 nM.

Source of the values: patent US20250154170A1, “FUSED PYRIMIDINES AS KRAS INHIBITORS” (priority 2022, published 2025).
